According to patent publication US20210330575A1 (DONG KOOK PHARM. CO., LTD, priority 2018, published 2021):

Test system: nitric oxide (NO) production in LPS-treated RAW264.7 cells
Assay: Anti-inflammation activity: NO production by Griess reagent
Type: cell-based, mouse
Settings: LPS-induced RAW264.7, 48 hours, FIG. 2
Procedure: RAW264.7 cells which have been induced to have an inflammation response by LPS in the same manner as above were added to a 96-well plate. […] Then, by using the Griess reagent, the production amount of NO was measured.

## COc1ccc2c(c1)c(CC(=O)O)c(C)n2C(=O)c1ccc(Cl)cc1 [indomethacin]
  NO production (result in words): decreased
